Assay type in all cases: cell-based, human
Assay [1] concerns HER2, Raf-1, Akt, Hsp70 in SKBr3 cells. The assay can be described thus: Western blotting of Hsp90 onco-client proteins and Hsp70 in SKBr3 cells. As for the experimental part: FIG. 3. Testing strategy for the discovery of YK5. a, b) SKBr3 cells were treated for 24 h with the indicated concentrations of inhibitors and cells were lysed for western blot (WB) analysis. β-actin was used as loading control. The data are consistent with those obtained from multiple repeat experiments (n≧3). c) The ability of the indicated inhibitors to compete with GM-Cy3B for Hsp90 binding in SKBr3 cell extracts was examined by fluorescence polarization. Values recorded in wells with added inhibitor were normalized to values read in control wells and plotted against the concentration of tested inhibitor. Drugs were assayed in triplicate. All compounds were used as DMSO stocks. Points, mean; bars, s.d. d) Growth inhibition: SKBr3 cells were incubated in triplicate with increasing concentrations of compound and growth over 72 h was assessed. Y-axis values below 0% represent cell death of the starting population. HER2 degradation was analyzed as in panel a), and gels were quantified by densitometry. Recorded values were normalized to control (vehicle only treated cells) and data graphed against YK5 concentration. Error bars represent the s.d. of the mean (n=3).
FIG. 8. […] Points, mean; bars, s.d. Yaxis values below 0% represent cell death of the starting population. c) Streptavidin beads (50 μl) were incubated with the indicated concentrations of YK55, YK56 or D-biotin to immobilize the corresponding compounds on beads. Beads (50 μl) were probed with SKBr3 cell extracts (500 μg), and the precipitated Hsp70 analyzed by western blot and quantified by […]. Results from three independent experiments were graphed to determine the relative binding affinity of YKs. Points, mean; bars, s.d. d) Structure of representative YKs. YK55 and YK56 are the biotinylated derivatives of YK54 and YK57, respectively.
FIG. 9. […] Cells were treated for 24 h with the indicated concentrations of YK149 and YK5. Cells were lysed and proteins analyzed by western blotting. b) Examples of the compounds of the present subject matter inhibit the activity of the oncogenic STAT3 in the triple-negative breast cancer cells MDA-MB-468. Cells were treated for the indicated times with compounds or vehicle and proteins analyzed by western blot. (c) Examples of the compounds of the present subject matter dose-dependently induce apoptosis in the acute myeloid leukemia cells MOLM13. Cells were treated for 24 h with the indicated concentration of compounds and the increase in caspase3,7 activity was measured and compared to only vehicle (DMSO) treated cells. Caspase-3,7 activity was a measure of compound potency in cleaving the caspase substrate Z-DEVD-R110 and releasing rhodamine. The percentage increase in apoptotic cells was calculated by comparing the fluorescence readings obtained from compounds with those obtained from vehicle (DMSO)-treated cells.
Western Blotting. Cells were grown to 60-70% confluence and treated with inhibitor or DMSO vehicle for the indicated times. Protein lysates were prepared in 50 mM Tris pH 7.4, 150 mM NaCl and 1% NP-40 lysis buffer. Protein concentrations were measured using the BCA kit (Pierce) according to the manufacturer's instructions. […]
For orientation: In western blotting, separated proteins are transferred to a membrane and probed.

In assay [2] the test system is Kasumi-1 acute myeloid leukemia cells. The assay can be described thus: Growth Inhibition Assay (Alamar blue), Kasumi-1. As to conditions: Kasumi-1 cells. As for the experimental part:
(§1) The IC50 values listed for some of these compounds illustrate the antiproliferative effects of the subject compounds and were obtained using the Growth Inhibition assays described herein.
(§2) Growth Inhibition Assay. Antiproliferative effects of inhibitors were evaluated using the dye Alamar blue. This reagent offers a rapid objective measure of cell viability in cell culture, and it uses the indicator dye resazurin to measure the metabolic capacity of cells, an indicator of cell viability. Briefly, cells were plated on Costar 96-well plates. For attached cells (such as SKBr3, MDA-MB-468, LNCaP, MRCS), 8,000 cells/well were used. For suspension cells (such as MOLM-13, Kasumi-1, OCI-Ly7, PBL), 20,000 cells/well were plated. Cells were allowed to incubate for 24 h at 37° C. before drug treatment. Drugs were added in triplicates at the indicated concentrations, and the plate was incubated for 72 h. Alamar Blue (440 μM) was added, and the plate read 6 h later using the Analyst GT (Fluorescence intensity mode, excitation 530 nm, emission 580 nm, with 560=dichroic mirror). Results were analyzed using the Softmax Pro software. The percentage cell growth inhibition was calculated by comparing fluorescence readings obtained from treated versus control cells, accounting for initial cell population (time zero).
Background: Resazurin is reduced to fluorescent resorufin, in cell work by metabolically active cells.

Assay [3] has as its system SKBr3 HER2+ breast cancer cells. The assay can be described thus: Growth Inhibition Assay (Alamar blue), SKBr3. To be noted: Homo sapiens, SK-BR-3, 72 h. As for the experimental part:
as §1, §2

A further assay deals with Kasumi-1 cells. The assay can be described thus: Apoptosis, acridine orange/ethidium bromide, Kasumi-1. As to conditions: 10 μM, 24 h. How it is done: FIG. 13. YK5 has a higher apoptotic effect than Hsp90 inhibitors in select tumors. (a-d) Cells were treated with the indicated concentrations of inhibitors for the times presented. (a,b) Apoptotic cells were quantified by dual acridine orange/ethidium bromide staining as described in Methods. (c,d) Molecular markers of apoptosis (PARP cleavage) were analyzed in cells treated for 24 h with indicated concentrations of inhibitors (c) or for the indicated times with the indicated concentration of inhibitors (d) by western blotting. (e) MDAMB-468 cells were treated with vehicle, TNFα (20 ng/ml), YK5 (1 μM), pretreated with YK5 for 2 h before TNFα or co-treated, and cells were lysed for western blot analysis (left), or cell death was quantified by analyzing the hypodiploid population upon propidium iodine staining (right). […]
To determine whether cell death by YK5 was attributable to apoptosis, cells were treated with YK5 and effects on morphology, as well as on several effectors and mediators of apoptosis were analyzed (FIG. 13). To quantify the number of cells undergoing apoptosis, cells were stained with acridine orange/ethidium bromide (AO/EB) and analyzed under a fluorescence microscope for the percentage of viable, apoptotic (early and late) and necrotic cells. […]
Apoptosis-Acridine Orange/Ethidium Bromide. […] Percentage of apoptotic cells was determined from 200-300 cells counted in each group.

Assay [4] has as its system MDA-MB-468, SKBr3, LNCaP, MOLM-13, Kasumi-1, OCI-Ly7 and HuH7 cells. The assay can be described thus: Growth inhibition in a panel of cancer cells. As to conditions: growth over 72 h. How it is done: Tested were MDA-MB-468 triple-negative breast cancer cells, SKBr3 HER2+breast cancer cells, LNCaP mAR+prostate cancer cells, MOLM-13 and Kasumi-1 acute myeloid leukemia cells, OCI-Ly7 diffuse large B-cell lymphoma cells and HuH7 hepatocellular carcinoma cells. […] In cancer cells, half growth inhibitory concentrations ([…]) recorded for YK5 were in high agreement with its potency to degrade Hsp90 onco-clients.
as §2

As to `COc1nc(N2CCN(C)CC2)nc(OC)c1Sc1cccc(NC(=O)CN)c1` [YK149, 2-amino-N-(3-(4,6-dimethoxy-2-(4-methylpiperazin-1-yl)pyrimidin-5-ylthio)phenyl)acetamide], the “degradation of Hsp90 onco-client proteins (HER2, Raf-1, Akt)” value in assay [1] (SKBr3 cells, 24 h, western blot) is “dose-dependently reduce the steady-state levels of HER2 and Raf-1”. The IC50 (in general, the concentration that gives 50% inhibition) in assay [2] (Homo sapiens, Kasumi 1, 72 h) stood at 13.9 µM; in assay [2] (72 h) it was 21 µM.

Turning to `CCOc1nc(N2CCN(C)CC2)nc(OCC)c1Sc1nc(N)cc(NC(=O)CC)n1` [YK31, N-(6-amino-2-(4,6-diethoxy-2-(4-methylpiperazin-1-yl)pyrimidin-5-ylthio)pyrimidin-4-yl)propionamide], the “lowering of biological activity, ethylamide versus acrylamide YK30” value in assay [1] (FIG. 8a, relative to YK30) stood at 30 fold. This compound also gave an IC50 in assay [2] (Homo sapiens, Kasumi 1, 72 h) of 34.1 µM.

Regarding `C=CC(=O)Nc1ccnc(Sc2c(OC)nc(N3CCCC3)nc2OC)n1` [YK74, N-(2-(4,6-dimethoxy-2-(pyrrolidin-1-yl)pyrimidin-5-ylthio)pyrimidin-4-yl)acrylamide], the IC50 in assay [2] (Homo sapiens, Kasumi 1, 72 h) came out at 42.2 µM; in assay [3], 4.3 µM.

Turning to `CCC(=O)Nc1cccc(Sc2c(OC)nc(N3CCOCC3)nc2OC)c1` [PDP4, N-(3-(4,6-dimethoxy-2-morpholinopyrimidin-5-ylthio)phenyl)propionamide], the IC50 in assay [2] (Homo sapiens, Kasumi 1, 72 h) is greater than 100 µM; in assay [3], greater than 100 µM.

For `C=CC(=O)Nc1ccnc(Sc2c(C)nc(N3CCOCC3)nc2C)n1` [YK117, N-(2-(4,6-dimethyl-2-morpholinopyrimidin-5-ylthio)pyrimidin-4-yl)acrylamide], the IC50 in assay [2] (Homo sapiens, Kasumi 1, 72 h) was 6.2 µM; in assay [3], 14.4 µM.

With `Cc1nc(N2CCN(C)CC2)nc(C)c1Sc1nccc(NC(=O)c2ccco2)n1` [YK89, N-(2-(4,6-dimethyl-2-(4-methylpiperazin-1-yl)pyrimidin-5-ylthio)pyrimidin-4-yl)furan-2-carboxamide], the IC50 in assay [2] (Homo sapiens, Kasumi 1, 72 h) was 12 µM; in assay [2] (72 h), 7.5 µM; in assay [3] it was 6.8 µM.

On to `CCC(=O)Nc1ccnc(Sc2c(OC)nc(N3CCCC3)nc2OC)n1` [YK106, N-(2-(4,6-dimethoxy-2-(pyrrolidin-1-yl)pyrimidin-5-ylthio)pyrimidin-4-yl)propionamide], for which the IC50 in assay [2] (Homo sapiens, Kasumi 1, 72 h) was greater than 100 µM; in assay [3], 99.5 µM.

On to `COc1nc(N2CCCC2)nc(OC)c1Sc1nccc(NC(=O)C2CC2)n1` [YK110, N-(2-(4,6-dimethoxy-2-(pyrrolidin-1-yl)pyrimidin-5-ylthio)pyrimidin-4-yl)cyclopropanecarboxamide], for which the IC50 in assay [2] (Homo sapiens, Kasumi 1, 72 h) was greater than 100 µM; in assay [3], greater than 100 µM.

On to `COc1nc(N2CCN(C)CC2)nc(OC)c1Sc1cccc(NC(=O)C2CC2)c1` [YK139, N-(3-(4,6-dimethoxy-2-(4-methylpiperazin-1-yl)pyrimidin-5-ylthio)phenyl)cyclopropanecarboxamide], for which the IC50 in assay [2] (Homo sapiens, Kasumi 1, 72 h) stood at 8.9 µM; in assay [2] (72 h), 7.9 µM; in assay [3], 7.7 µM.

`C=CC(=O)Nc1ccnc(Sc2c(C)nc(N3CCN(C)CC3)nc2C)n1` [YK85, N-(2-(4,6-dimethyl-2-(4-methylpiperazin-1-yl)pyrimidin-5-ylthio)pyrimidin-4-yl)acrylamide]: the IC50 in assay [2] (Homo sapiens, Kasumi 1, 72 h) turned out to be 4.8 µM; in assay [3], 1.8 µM.

Regarding `C=CC(=O)Nc1ccnc(Sc2c(OC)nc(N3CC[N+](C)([O-])CC3)nc2OC)n1` [YK80, 4-(5-(4-acrylamidopyrimidin-2-ylthio)-4,6-dimethoxypyrimidin-2-yl)-1-methylpiperazine 1-oxide], the IC50 is greater than 100 µM in assay [2] (Homo sapiens, Kasumi 1, 72 h) and 31.1 µM in assay [3].

Consider `C=CC(=O)Nc1ccnc(Sc2c(OC)nc(N3CCOCC3)nc2OC)n1` [YK73, N-(2-(4,6-dimethoxy-2-morpholinopyrimidin-5-ylthio)pyrimidin-4-yl)acrylamide], for which the IC50 was 1.9 µM in assay [2] (Homo sapiens, Kasumi 1, 72 h) and 11.6 µM in assay [3].

Compound `C#CCCCn1c(Cc2cc(OC)c(OC)c(OC)c2Cl)nc2c(N)nc(F)nc21` [PU24FCl, reference compound] returned a cells undergoing apoptosis with Kasumi-1 cells of 9%. In addition, the “feed-back induction of Hsp70 (heat shock response)” value in assay [1] (SKBr3 cells, 24 h) is “potently activated a heat shock response”. The “growth of all tested cancer cells” value in assay [4] is “inhibited the growth of all tested cancer cells”.

In the case of `CCC(=O)Nc1cccc(Sc2c(OC)nc(N)nc2OC)c1` [YK140, N-(3-(2-amino-4,6-dimethoxypyrimidin-5-ylthio)phenyl)propionamide], the IC50 in assay [2] (Homo sapiens, Kasumi 1, 72 h) was 35.2 µM; in assay [3], 99.5 µM.

On to `CC(C)NCCCn1c(Sc2cc3c(cc2I)OCO3)nc2c(N)ncnc21` [PU-H71, reference compound], for which the “feed-back induction of Hsp70 (heat shock response)” value in assay [1] (SKBr3 cells, 24 h) is recorded as “potently activated a heat shock response”. For the same compound, the “growth of all tested cancer cells” value in assay [4] is “inhibited the growth of all tested cancer cells”.

The values above are taken from patent publication US9567318B2, “Substituted pyrimidine compounds and uses thereof” (Memorial Sloan-Kettering Cancer Center, priority 2009, dated 2017).
